Results from paper PMC7588185 (2020).

system: aad-4 riboswitch RNA (aad-4 leader RNA) (RNA, riboswitch) GGAGCAGCAACGAUGUUACGCAGCAGGGCAGUCGCCCUAAACAAAGUUAGGCCGCAUGGACACAACGCAGGUCACAUUGAUACACCAAAUUCUAGCUGCGGCAGAUGAGCGAAAU; assay: MicroScale Thermophoresis; conditions: 100 mM KCl, 0.1 mM MgCl2; 10 mM HEPES pH 7.5; FTSC-labelled RNA

Kd [µM] | Compound
10 | NC[C@@H]1O[C@H](O[C@H]2[C@@H](O)[C@H](O[C@@H]3[C@@H](O)[C@H](N)C[C@H](N)[C@H]3O[C@H]3O[C@H](CO)[C@@H](O)[C@H](O)[C@H]3N)O[C@@H]2CO)[C@H](N)[C@@H](O)[C@@H]1O
12 | NC[C@H]1O[C@H](O[C@H]2[C@H](O)[C@@H](O)[C@H](N)C[C@@H]2N)[C@H](N)[C@@H](O)[C@@H]1O
40 | NC[C@H]1O[C@H](O[C@H]2[C@H](O[C@@H]3O[C@H](CO)[C@@H](O)[C@H]3O)[C@@H](O)[C@H](N)C[C@@H]2N)[C@H](N)[C@@H](O)[C@@H]1O

same assay, conditions: 100 mM KCl, 0.1 mM MgCl2; 10 mM HEPES pH 7.5; FTSC-labelled RNA; only group range 1.2–3.9 µM given

Kd [µM] | Compound
2.16 ± 0.25 | CN[C@@H]1[C@@H](O)[C@@H](O[C@@H]2[C@@H](O)[C@H](O[C@H]3OC(CN)=CC[C@H]3N)[C@@H](N)C[C@H]2N)OC[C@]1(C)O
1.58 ± 0.28 | NC[C@H]1O[C@H](O[C@H]2[C@H](O)[C@@H](O[C@H]3O[C@H](CO)[C@@H](O)[C@H](N)[C@H]3O)[C@H](N)C[C@@H]2N)[C@H](N)C[C@@H]1O
2.55 ± 0.24 | NC[C@H]1O[C@H](O[C@H]2[C@H](O)[C@@H](O[C@H]3O[C@H](CO)[C@@H](O)[C@H](N)[C@H]3O)[C@H](N)C[C@@H]2N)[C@H](N)[C@@H](O)[C@@H]1O
